Consider one molecule from PMC9029323, “In Silico Identification of Novel Inhibitors Targeting the Homodimeric Interface of Superoxide Dismutase from the Dental Pathogen Streptococcus mutans” (Antioxidants, 2022).

“Also recorded” adds a separate entry of the source. A value given as a limit tells only on which side of the number the result lay.

Series [1] concerns the target T1, Mn–SOD from rat mitochondria (Rattus norvegicus, UniProt P07895).
T1 construct: made in house
T1 sequence (P07895 25-222): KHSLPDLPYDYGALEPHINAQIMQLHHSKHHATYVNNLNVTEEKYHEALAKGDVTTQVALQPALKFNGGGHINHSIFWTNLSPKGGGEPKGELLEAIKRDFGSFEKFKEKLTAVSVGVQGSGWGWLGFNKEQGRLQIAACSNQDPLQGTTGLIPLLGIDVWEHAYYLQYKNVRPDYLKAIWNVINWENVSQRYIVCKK
In words: SOD activity assay with Mn-SOD. It counts as biochemical.
Text: (§1) Purified recombinant forms of SmSOD and StSOD were obtained through a heterologous expression system constituted by the Escherichia coli BL21(DE3) strain transformed with appropriate expression vectors, vSmSOD [11] or vStSOD [12]. These pET-22b(+)- or pET-28b(+)-derived plasmids led to the production of recombinant forms of SmSOD or StSOD, respectively fused to a His-tail, useful for their one-step purification by affinity chromatography, as previously described [11, 12]. The improvement of Mn uptake by SmSOD was realised as previously described [11, 12, 13]. The resulting metal (Fe and Mn) content in the cambialistic enzyme was determined by graphite furnace atomic absorption spectrometry with a Shimadzu ACS-6100 auto sampler [46]. Fe-SOD from Escherichia coli (cat. SRP6107) and the Cu/Zn-SOD from bovine erythrocytes (cat. 574594) were purchased from Sigma–Aldrich. A recombinant form of the eukaryal Mn–SOD from rat mitochondria was prepared as previously described [19]. Protein concentration was determined by the Bradford method, using bovine serum albumin as standard [47]. […] One unit of SOD activity was defined as the amount of enzyme that caused 50% inhibition of cytochrome c reduction.

Series [2] has as its target T2, Cu/ZnSOD from bovine erythrocytes (Bos taurus, UniProt P00442).
T2 construct: the Cu/Zn-SOD from bovine erythrocytes (cat. 574594) were purchased from Sigma–Aldrich; purchased Sigma–Aldrich 574594; host or cells: bovine erythrocytes
The experiment in a line: SOD activity assay with Cu/Zn-SOD. The format is biochemical.
Text: as §1

Another series deals with T3, SmSOD (Streptococcus mutans serotype c, UniProt P09738).
T3 construct: His-tail; made in house; host or cells: Escherichia coli BL21(DE3), vector vSmSOD (pET-22b(+)-derived)
T3 sequence (P09738 2-203): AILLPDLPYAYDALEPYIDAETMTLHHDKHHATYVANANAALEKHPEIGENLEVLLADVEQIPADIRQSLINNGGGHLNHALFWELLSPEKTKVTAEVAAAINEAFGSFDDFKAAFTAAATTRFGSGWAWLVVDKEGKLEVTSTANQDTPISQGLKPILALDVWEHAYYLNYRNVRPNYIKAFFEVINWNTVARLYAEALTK
In words: Gel electrophoresis of SmSOD under not denaturing conditions. Conditions: 7 to 51 µM protein, preincubation with 488 µM compound; not shown. An excerpt: The putative reversible interaction between SmSOD and ALS-31 was further investigated through the behaviour of this enzyme in gel electrophoresis. […] Therefore, the reversible and non-covalent interaction between SmSOD and ALS-31 allowed the disassemblage of the enzyme and consequently its inhibition, only when a proper concentration of the inhibitor remained in contact with the enzyme.

Series [3] deals with fibroblast cell line BJ-5ta. In words: Colony-forming assay. It counts as cell-based, human. The following applies: up to 100 µM. As to the method:
The cell line BJ-5ta, a human skin fibroblast immortalised with the human telomerase reverse transcriptase (Cell Culture Facility of CEINGE, Naples, Italy), was cultured in a 4:1 mixture of DMEM and Medium 199 supplemented with 4 mM L-glutamine, 4.5 g/L glucose, 1.5 g/L sodium bicarbonate, 10% FBS, 100 IU/mL penicillin G and […] streptomycin in a humidified incubator at 37 °C under 5% CO2 atmosphere. Cells were split and seeded every 3 days and used during their exponential phase of growth. Cell treatments were usually carried out after 24 h from plating. To obtain total protein extracts from BJ5-ta, cells were seeded into six-well plates (3 × 10^5 cells/plate) for 24 h at 37 °C and then treated with ALS-31 or 0.5% (v/v) DMSO. After treatment, cells were harvested, washed with PBS and then lysed in ice-cold modified radio immunoprecipitation assay (RIPA) buffer (50 mM Tris•HCl, pH 7.4, 150 mM NaCl, 1% Nonidet P-40, 0.25% sodium deoxycholate, 1 mM Na3VO4 and 1 mM NaF), supplemented with protease inhibitors and incubated for 30 min on ice. […]
A colony-forming assay was performed as previously described, with some modifications. […] Cells were photographed with a digital camera (Canon PowerShot G9); the number of colonies (≥50 cells per colony) was counted using ImageJ 1.42q software.

Series [4] relates to Streptococcus mutans ATCC-700610. The experiment in a line: Broth micro-dilution antibacterial assay (planktonic growth). The format is cell-based. Conditions: 24 h. As to the method: The bacterial strain used for antimicrobial assays was Streptococcus mutans ATCC-700610. The strain was stored in 15% (v/v) glycerol stocks at −80 °C. Before each experiment, cells were subcultured from the stocks into Trypticase Soy Agar (TSA, cat. PA-254051.06) with 5% Sheep Blood (Becton Dickinson, Sparks, NV, USA) plates at 37 °C in 5% CO2 atmosphere for 48 h.
The antibacterial activity of compounds ALS-31 or ALS-31-9 was assayed in S. mutans cultures by a standard broth micro-dilution method in 96-well polystyrene plates using Brain-Heart Infusion broth (BHI, cat. 255003, Becton Dickinson, Sparks, NV, USA). One hundred microliters of bacterial suspension adjusted to approximately 1.5 × 10^6 CFU/mL were incubated with 100 µL of serial dilutions of the compounds dissolved in final 1.0% (v/v) DMSO as a vehicle. The plates were incubated at 37 °C in 5% CO2 atmosphere for 24 h under shaking (300 rpm). The medium turbidity was measured by a spectrophotometer at 595 nm (Bio-Rad Laboratories Inc., Hercules, CA, USA). Compound-free wells in 1.0% (v/v) DMSO were used as controls (100% planktonic growth), and antibacterial activity was expressed as a percentage of residual growth. Chlorhexidine acetate (CHX, cat. 51094, Sigma-Aldrich, St. Louis, MO, USA) solution (1 mg/mL) was prepared and included as control for the assay of S. mutans’ susceptibility (MIC referred to [51]). Each compound was tested in triplicate; each experiment was performed twice.

Another series has as its target T4, SmSOD homodimer (Streptococcus mutans serotype c, UniProt P09738).
T4 construct: His-tail; made in house; host or cells: Escherichia coli BL21(DE3), vector vSmSOD (pET-22b(+)-derived)
In words: Size exclusion chromatography (gel-filtration) of SmSOD. As for the experimental part: The oligomerization status of SmSOD was analyzed by gel-filtration on a Superdex^TM 75 10/300 GL column (GE Healthcare) connected to an FPLC^TM system. The column was equilibrated and eluted at 0.5 mL/min at room temperature (20–24 °C) with a 20 mM Tris•HCl buffer, pH 7.8, containing 150 mM KCl and 1% (v/v) DMSO. However, where indicated, the equilibration and elution buffer also contained 200 µM inhibitor. The protein molecular mass standards used for calibration of the size exclusion chromatography were bovine serum albumin (68 kDa), egg albumin (46 kDa), carbonic anhydrase (30 kDa) and cytochrome c (12.4 kDa).
Figure 4 Effect of ALS-31 on gel-filtration of SmSOD. A protein sample of SmSOD, 63 µM in 20 mM Tris•HCl buffer, pH 7.8, supplemented with 150 mM KCl and 1% (v/v) DMSO, was untreated or incubated at room temperature for 20 min with 200 µM ALS-31. The protein sample was then loaded on a Superdex 75 10/300 column and the elution profile was followed by a continuous absorbance monitoring at 280 nm. Untreated SmSOD (black line); SmSOD incubated with 200 µM ALS-31 without (green line) or after the addition of 200 µM ALS-31 in the elution buffer (red line). The elution volumes of bovine serum albumin (9.56 mL), egg albumin (10.44 mL), carbonic anhydrase (11.72 mL) and cytochrome c (13.51 mL), used as standard protein markers, are indicated by inverted triangles. Their position was unaffected by the addition of ALS-31 in equilibration and elution buffer.

T4 sequence (P09738 2-203): as above
T2 sequence (P00442 whole entry): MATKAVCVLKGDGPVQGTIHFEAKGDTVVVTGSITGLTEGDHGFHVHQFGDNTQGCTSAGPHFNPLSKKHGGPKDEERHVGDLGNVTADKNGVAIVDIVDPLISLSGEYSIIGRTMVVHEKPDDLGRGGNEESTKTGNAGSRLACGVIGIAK

With `CSCCC(NC(=O)COc1ccc2c3c(c(=O)oc2c1)CCCC3)C(=O)NCCC(=O)O` (stereo not shown) [ALS-31], the 50% inhibitory concentration (IC50) in series [1] worked out at 161 ± 56 µM; in series [2], 146 ± 25 µM. The “electrophoretic mobility of SmSOD” value on SmSOD was “no change”. Further, the “toxicity for growth / viability of fibroblast cell line BJ-5ta (colony formation)” value in series [3] is “not affected; also recorded: not toxic”. Besides, the “percentage of planktonic growth of S. mutans” value in series [4] (104 µM) was 74.3 ± 4.5%; in series [4] (209 µM) it was 50.7 ± 4.2%. For the same molecule, the “concentration up to which no antimicrobial activity is displayed in S. mutans suspensions” value in series [4] is reported as at most 50 µM. In addition, on SmSOD homodimer (200 µM compound in equilibration and elution buffer, untreated SmSOD 51.8 kDa), the “calculated molecular mass of SmSOD major peak” value is given as 23.2 kDa. Besides, on SmSOD homodimer (200 µM compound in protein sample and elution buffer), the “quaternary structure of SmSOD in gel-filtration” value was “dissociation of the SmSOD homodimer in two monomers”. Moreover, on SmSOD homodimer (SmSOD incubated with 200 µM compound before loading, no compound in elution buffer), the “elution of SmSOD compared with untreated sample” value was “almost identical elution”.

Broadly, the IC50 is the concentration that gives 50% inhibition. Read a high IC50 as weaker potency in that assay.
